Results reported in ChEMBL document CHEMBL5360563, “Discovery of a potent and selective allosteric inhibitor targeting the SHP2 tunnel site for RTK-driven cancer treatment” (Eur J Med Chem, 2023).

Assays:
[1] = biological target: T1, Tyrosine-protein phosphatase non-receptor type 11 (Homo sapiens, UniProt Q06124); experiment: Inhibition of pIRS-1 peptide activated human wild type SHP2 FL (Met1 to Leu525 residues) using DiFMUP as substrate preincubated for 30 mins followed by substrate addition and measured after 30 mins by microplate reader method
T1 sequence (Q06124 whole entry): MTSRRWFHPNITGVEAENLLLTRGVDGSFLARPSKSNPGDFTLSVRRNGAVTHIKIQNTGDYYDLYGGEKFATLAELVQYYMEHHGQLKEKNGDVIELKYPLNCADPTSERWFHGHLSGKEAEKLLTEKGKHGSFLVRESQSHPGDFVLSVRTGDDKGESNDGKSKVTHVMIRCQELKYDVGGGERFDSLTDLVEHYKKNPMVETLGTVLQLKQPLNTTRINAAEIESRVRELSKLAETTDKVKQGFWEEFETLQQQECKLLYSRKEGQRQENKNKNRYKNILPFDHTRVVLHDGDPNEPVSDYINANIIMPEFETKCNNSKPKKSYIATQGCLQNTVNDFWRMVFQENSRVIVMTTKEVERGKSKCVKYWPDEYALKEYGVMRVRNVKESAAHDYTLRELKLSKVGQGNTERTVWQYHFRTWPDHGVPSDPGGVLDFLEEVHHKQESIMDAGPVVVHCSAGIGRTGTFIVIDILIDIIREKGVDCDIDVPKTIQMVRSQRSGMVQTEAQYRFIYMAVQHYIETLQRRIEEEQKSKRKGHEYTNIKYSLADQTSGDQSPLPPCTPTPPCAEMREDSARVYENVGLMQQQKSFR

[2] = Tmax in Sprague-Dawley rat at 5 mg/kg, iv and measured upto 24 hrs by LC-MS/MS analysis; format: ADME, organism-based; conditions: in vivo
[3] = biological target: Phosphatidylinositol 4-phosphate 3-kinase C2 domain-containing subunit beta (Homo sapiens) (UniProt O00750); conditions: dose 1000.0 nM
Sequence of Phosphatidylinositol 4-phosphate 3-kinase C2 domain-containing subunit beta (Homo sapiens) (O00750 whole entry, the tested form may be a part): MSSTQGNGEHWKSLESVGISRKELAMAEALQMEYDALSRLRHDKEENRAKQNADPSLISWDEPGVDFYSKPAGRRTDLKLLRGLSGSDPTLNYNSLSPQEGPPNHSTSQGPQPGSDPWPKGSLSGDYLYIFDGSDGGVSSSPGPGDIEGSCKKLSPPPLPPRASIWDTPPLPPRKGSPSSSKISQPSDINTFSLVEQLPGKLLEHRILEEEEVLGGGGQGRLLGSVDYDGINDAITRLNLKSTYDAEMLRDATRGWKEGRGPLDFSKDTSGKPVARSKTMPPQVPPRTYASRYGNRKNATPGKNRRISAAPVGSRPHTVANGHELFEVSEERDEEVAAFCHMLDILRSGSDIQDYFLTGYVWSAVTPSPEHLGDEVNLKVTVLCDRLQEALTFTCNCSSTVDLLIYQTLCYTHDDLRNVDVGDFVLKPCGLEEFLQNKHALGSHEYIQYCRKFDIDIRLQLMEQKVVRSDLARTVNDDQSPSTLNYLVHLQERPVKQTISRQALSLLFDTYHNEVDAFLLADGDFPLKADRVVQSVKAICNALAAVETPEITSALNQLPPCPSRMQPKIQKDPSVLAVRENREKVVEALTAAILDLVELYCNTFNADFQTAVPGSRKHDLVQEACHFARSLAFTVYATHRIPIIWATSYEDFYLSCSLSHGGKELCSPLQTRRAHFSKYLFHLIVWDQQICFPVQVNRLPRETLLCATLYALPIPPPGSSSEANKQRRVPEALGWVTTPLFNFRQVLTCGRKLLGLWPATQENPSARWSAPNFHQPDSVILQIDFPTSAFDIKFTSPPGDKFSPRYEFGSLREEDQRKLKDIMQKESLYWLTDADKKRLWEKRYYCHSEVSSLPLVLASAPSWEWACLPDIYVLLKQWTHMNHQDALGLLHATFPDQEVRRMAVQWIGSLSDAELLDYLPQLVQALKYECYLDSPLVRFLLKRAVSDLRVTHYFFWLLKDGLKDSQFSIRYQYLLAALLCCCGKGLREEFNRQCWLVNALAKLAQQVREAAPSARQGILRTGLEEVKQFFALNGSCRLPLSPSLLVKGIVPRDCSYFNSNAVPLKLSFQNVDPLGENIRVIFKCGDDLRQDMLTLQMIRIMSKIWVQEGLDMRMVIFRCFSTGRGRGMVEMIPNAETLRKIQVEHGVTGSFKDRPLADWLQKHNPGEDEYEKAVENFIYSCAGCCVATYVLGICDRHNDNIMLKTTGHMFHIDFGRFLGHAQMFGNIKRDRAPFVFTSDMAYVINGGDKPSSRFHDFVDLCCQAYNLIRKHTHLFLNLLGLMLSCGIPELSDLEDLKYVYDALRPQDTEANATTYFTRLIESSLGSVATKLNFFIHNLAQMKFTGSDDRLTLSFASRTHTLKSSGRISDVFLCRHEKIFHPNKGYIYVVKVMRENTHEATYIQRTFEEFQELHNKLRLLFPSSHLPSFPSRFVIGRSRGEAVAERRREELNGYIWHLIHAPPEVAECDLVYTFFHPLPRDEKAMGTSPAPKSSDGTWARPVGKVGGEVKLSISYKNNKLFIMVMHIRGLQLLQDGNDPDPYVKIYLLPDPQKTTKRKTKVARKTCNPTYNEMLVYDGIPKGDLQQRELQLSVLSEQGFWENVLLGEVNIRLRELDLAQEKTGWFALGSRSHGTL
Description: Inhibition of PIK3C2B (unknown origin) at 1000 nM by KINOMEscan assay relative to control

[4] = Cmax in Sprague-Dawley rat at 5 mg/kg, po and measured upto 24 hrs by LC-MS/MS analysis; format: ADME, organism-based; set-up: dose 5 mg/kg, time < 24 hrs, route po; conditions: in vivo
[5] = biological target: Serine/threonine-protein kinase 32C (Homo sapiens) (UniProt Q86UX6); conditions: dose 1000.0 nM
Sequence of Serine/threonine-protein kinase 32C (Homo sapiens) (Q86UX6 whole entry): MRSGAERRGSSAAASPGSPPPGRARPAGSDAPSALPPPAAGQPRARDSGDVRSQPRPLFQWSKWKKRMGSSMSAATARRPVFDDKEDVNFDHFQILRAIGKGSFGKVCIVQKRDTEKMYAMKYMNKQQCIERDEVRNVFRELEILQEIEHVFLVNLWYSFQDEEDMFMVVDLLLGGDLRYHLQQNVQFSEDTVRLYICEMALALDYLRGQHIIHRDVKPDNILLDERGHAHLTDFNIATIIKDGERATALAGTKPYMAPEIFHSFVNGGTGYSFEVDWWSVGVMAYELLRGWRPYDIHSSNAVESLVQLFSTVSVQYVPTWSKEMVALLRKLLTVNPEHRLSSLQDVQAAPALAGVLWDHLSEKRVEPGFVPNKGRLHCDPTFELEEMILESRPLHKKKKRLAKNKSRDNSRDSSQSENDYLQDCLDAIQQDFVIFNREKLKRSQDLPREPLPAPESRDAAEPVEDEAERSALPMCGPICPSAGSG
Description: Inhibition of YANK3 (unknown origin) at 1000 nM by KINOMEscan assay relative to control

[6] = AUC (0 to infinity) in Sprague-Dawley rat at 5 mg/kg, po and measured upto 24 hrs by LC-MS/MS analysis; format: ADME, organism-based; set-up: dose 5 mg/kg, time < 24 hrs, route po; conditions: in vivo
[7] = Tmax in Sprague-Dawley rat at 5 mg/kg, po and measured upto 24 hrs by LC-MS/MS analysis; format: ADME, organism-based; conditions: in vivo
[8] = biological target: T1, Tyrosine-protein phosphatase non-receptor type 11; experiment: Inhibition of human SHP2 in human NCI-H1975 cells assessed as reduction in ERK phosphorylation by Western blot analysis; format: cell-based
[9] = Cmax in Sprague-Dawley rat at 5 mg/kg, iv and measured upto 24 hrs by LC-MS/MS analysis; format: ADME, organism-based; set-up: dose 5 mg/kg, time < 24 hrs, route iv; conditions: in vivo
[10] = Half life in Sprague-Dawley rat at 5 mg/kg, po and measured upto 24 hrs by LC-MS/MS analysis; format: ADME, organism-based; conditions: in vivo
[11] = Half life in Sprague-Dawley rat at 5 mg/kg, iv and measured upto 24 hrs by LC-MS/MS analysis; format: ADME, organism-based; conditions: in vivo
[12] = biological target: T2, TGF-beta receptor type-1 (Homo sapiens) (UniProt P36897); conditions: dose 1000.0 nM
T2 sequence (whole entry): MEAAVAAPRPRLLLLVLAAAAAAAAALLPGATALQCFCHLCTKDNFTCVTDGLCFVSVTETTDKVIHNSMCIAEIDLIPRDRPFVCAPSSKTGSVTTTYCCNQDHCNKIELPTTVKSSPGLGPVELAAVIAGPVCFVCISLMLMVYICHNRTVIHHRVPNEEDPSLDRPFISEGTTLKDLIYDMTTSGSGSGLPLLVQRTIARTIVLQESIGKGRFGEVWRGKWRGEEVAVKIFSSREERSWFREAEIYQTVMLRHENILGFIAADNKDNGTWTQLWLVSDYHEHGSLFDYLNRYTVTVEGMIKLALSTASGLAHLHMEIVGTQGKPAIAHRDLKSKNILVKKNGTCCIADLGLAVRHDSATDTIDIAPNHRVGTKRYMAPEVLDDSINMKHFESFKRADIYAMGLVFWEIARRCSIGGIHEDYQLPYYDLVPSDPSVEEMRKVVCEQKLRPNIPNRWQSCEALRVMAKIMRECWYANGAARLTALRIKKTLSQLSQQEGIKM
Description: Inhibition of TGFBR1 (unknown origin) at 1000 nM by KINOMEscan assay relative to control

[13] = biological target: T3, Serine/threonine-protein kinase STK11 (Homo sapiens) (UniProt Q15831); conditions: dose 1000.0 nM
T3 sequence (whole entry): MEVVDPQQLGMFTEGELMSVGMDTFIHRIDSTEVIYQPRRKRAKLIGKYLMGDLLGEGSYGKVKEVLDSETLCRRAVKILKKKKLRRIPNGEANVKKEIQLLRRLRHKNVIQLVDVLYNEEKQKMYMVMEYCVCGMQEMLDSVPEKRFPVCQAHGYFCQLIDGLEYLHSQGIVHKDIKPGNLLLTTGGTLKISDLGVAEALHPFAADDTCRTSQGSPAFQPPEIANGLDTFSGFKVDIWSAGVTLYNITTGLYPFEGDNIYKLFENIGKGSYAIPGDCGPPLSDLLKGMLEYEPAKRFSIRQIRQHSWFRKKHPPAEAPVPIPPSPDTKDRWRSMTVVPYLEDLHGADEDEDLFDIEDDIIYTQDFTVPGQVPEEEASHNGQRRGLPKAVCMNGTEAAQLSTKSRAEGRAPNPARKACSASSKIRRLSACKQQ
Description: Inhibition of LKB1 (unknown origin) at 1000 nM by KINOMEscan assay relative to control

[14] = Volume of distribution at steady state in Sprague-Dawley rat at 5 mg/kg, iv and measured upto 24 hrs by LC-MS/MS analysis; format: ADME, organism-based; conditions: in vivo, read-out: Vdss
[15] = Clearance in Sprague-Dawley rat at 5 mg/kg, iv and measured upto 24 hrs by LC-MS/MS analysis; format: ADME, organism-based; conditions: in vivo
[16] = Oral bioavailability in Sprague-Dawley rat at 5 mg/kg and measured upto 24 hrs by LC-MS/MS analysis; format: ADME, organism-based; conditions: in vivo
[17] = biological target: Insulin receptor (Homo sapiens) (UniProt P06213); conditions: dose 1000.0 nM
Sequence of Insulin receptor (Homo sapiens) (P06213 28-758 limits assumed): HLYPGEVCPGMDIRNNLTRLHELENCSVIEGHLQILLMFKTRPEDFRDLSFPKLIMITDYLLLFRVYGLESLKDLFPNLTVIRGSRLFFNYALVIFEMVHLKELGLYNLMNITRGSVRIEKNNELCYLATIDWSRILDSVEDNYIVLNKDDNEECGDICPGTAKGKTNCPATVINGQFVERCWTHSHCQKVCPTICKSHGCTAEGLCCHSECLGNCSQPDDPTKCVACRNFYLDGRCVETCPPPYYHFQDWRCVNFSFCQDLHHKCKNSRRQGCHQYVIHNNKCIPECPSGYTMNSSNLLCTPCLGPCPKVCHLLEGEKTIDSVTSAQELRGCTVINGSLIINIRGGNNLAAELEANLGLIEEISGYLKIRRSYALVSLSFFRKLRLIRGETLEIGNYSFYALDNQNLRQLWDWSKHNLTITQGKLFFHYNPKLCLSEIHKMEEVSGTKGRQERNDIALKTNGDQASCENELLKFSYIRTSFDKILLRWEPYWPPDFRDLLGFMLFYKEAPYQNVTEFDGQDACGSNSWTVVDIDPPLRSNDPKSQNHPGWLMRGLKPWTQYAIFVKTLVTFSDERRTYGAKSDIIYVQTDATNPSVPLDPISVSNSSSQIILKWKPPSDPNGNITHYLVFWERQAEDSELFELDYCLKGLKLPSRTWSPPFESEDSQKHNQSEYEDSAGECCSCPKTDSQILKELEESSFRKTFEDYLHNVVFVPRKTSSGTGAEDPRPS
Sequence of Insulin receptor (Homo sapiens) (P06213 763-1382 limits assumed): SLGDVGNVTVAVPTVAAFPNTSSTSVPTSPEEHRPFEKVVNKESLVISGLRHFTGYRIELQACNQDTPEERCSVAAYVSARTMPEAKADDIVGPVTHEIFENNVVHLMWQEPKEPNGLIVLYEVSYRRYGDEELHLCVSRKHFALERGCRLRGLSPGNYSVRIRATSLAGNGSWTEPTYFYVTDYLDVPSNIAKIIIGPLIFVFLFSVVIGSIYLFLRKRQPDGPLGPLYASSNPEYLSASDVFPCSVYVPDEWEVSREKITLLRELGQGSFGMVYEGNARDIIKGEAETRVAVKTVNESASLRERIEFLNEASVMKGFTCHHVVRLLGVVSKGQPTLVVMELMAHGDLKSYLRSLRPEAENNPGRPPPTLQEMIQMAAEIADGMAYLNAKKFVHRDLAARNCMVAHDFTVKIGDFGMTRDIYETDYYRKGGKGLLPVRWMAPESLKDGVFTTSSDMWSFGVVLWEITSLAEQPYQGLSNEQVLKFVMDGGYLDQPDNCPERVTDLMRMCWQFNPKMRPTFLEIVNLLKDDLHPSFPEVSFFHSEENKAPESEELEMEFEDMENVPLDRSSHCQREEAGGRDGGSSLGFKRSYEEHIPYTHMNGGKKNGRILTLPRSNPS
Description: Inhibition of INSR (unknown origin) at 1000 nM by KINOMEscan assay relative to control

[18] = biological target: Dual specificity tyrosine-phosphorylation-regulated kinase 1B (Homo sapiens) (UniProt Q9Y463); conditions: dose 1000.0 nM
Sequence of Dual specificity tyrosine-phosphorylation-regulated kinase 1B (Homo sapiens) (Q9Y463 whole entry, looked up): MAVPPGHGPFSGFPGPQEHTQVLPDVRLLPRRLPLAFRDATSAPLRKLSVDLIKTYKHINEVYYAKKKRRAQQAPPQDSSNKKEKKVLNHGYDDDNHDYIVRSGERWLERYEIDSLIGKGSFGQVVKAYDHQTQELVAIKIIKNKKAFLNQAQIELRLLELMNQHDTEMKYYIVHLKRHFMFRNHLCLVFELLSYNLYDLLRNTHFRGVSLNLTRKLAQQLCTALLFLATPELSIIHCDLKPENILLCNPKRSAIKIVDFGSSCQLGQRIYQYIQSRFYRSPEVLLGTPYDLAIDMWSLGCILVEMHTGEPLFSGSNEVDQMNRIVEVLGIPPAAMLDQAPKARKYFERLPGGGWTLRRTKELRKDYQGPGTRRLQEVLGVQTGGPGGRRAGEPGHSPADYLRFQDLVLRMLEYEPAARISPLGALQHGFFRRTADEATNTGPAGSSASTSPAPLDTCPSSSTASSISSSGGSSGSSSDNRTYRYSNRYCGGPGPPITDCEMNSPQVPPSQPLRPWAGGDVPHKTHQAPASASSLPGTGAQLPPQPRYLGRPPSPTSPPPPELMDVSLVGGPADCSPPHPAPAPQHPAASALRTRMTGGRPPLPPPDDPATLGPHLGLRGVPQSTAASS
Description: Inhibition of DYRK1B (unknown origin) at 1000 nM by KINOMEscan assay relative to control

[19] = AUC (0 to infinity) in Sprague-Dawley rat at 5 mg/kg, iv and measured upto 24 hrs by LC-MS/MS analysis; format: ADME, organism-based; set-up: dose 5 mg/kg, time < 24 hrs, route iv; conditions: in vivo
[20] = biological target: T1, Tyrosine-protein phosphatase non-receptor type 11; experiment: Inhibition of human SHP2 in human NCI-H1975/OSIR cells assessed as reduction in ERK phosphorylation by Western blot analysis; format: cell-based

Row | IC50 [1] | SMILES | further results
1 | 8.1 µM | CC1(N)CCN(c2ncc(C(=O)NCc3ccccn3)c(N)n2)CC1 | –
2 | 2.3 µM | COc1ccc(NC(=O)c2cnc(N3CCC(C)(N)CC3)nc2N)cc1OC | –
3 | 100 µM | Nc1nc(N2CCc3ccccc3C2)ncc1C(=O)Nc1ccccc1 | –
4 | 9.5 µM | Nc1nc(N2CCOCC2)ncc1C(=O)Nc1ccccc1 | –
5 | > 100 µM | Nc1nc(N2CCN(c3ccccc3)CC2)ncc1C(=O)Nc1ccccc1 | –
6 | 9.3 µM | CC(C)N1CCN(c2ncc(C(=O)Nc3ccccc3)c(N)n2)CC1 | –
7 | 100 µM | Nc1nc(N2CCN(C(=O)c3ccco3)CC2)ncc1C(=O)Nc1ccccc1 | –
8 | 0.089 µM | CC1(N)CCN(c2ncc(C(=O)Nc3cccnc3)c(N)n2)CC1 | Tmax [2]: 4.98 min; inhibition [3]: > 35%; Cmax [4]: 101 ng/mL; inhibition [5]: 54%; AUC(0-inf) [6]: 1040 ng·h/mL; Tmax [7]: 2.17 h; IC50 [8]: 0.59 µM; Cmax [9]: 854 ng/mL; half-life [10]: 4.77 h; half-life [11]: 5.31 h; inhibition [12]: 64%; inhibition [13]: > 35%; Vd [14]: 14 L/kg; clearance [15]: 44.8 mL/min/kg; bioavailability [16]: 55.1%; inhibition [17]: 69%; inhibition [18]: 50%; AUC(0-inf) [19]: 1880 ng·h/mL; IC50 [20]: 0.63 µM
9 | 100 µM | Nc1nc(N2CCN(C3CCCCC3)CC2)ncc1C(=O)Nc1ccccc1 | –
10 | 2 µM | CC1(N)CCN(c2ncc(C(=O)Nc3ccc([N+](=O)[O-])cc3)c(N)n2)CC1 | –
11 | 35 µM | CC(C)(C)OC(=O)N1CCN(c2ncc(C(=O)Nc3ccccc3)c(N)n2)CC1 | –
12 | 12.5 µM | COc1cccc(OC)c1NC(=O)c1cnc(N2CCC(C)(N)CC2)nc1N | –
13 | 5.6 µM | Nc1nc(N2CCSCC2)ncc1C(=O)Nc1ccccc1 | –
14 | 8 µM | CC1(N)CCN(c2ncc(C(=O)Nc3ccc4ccccc4c3)c(N)n2)CC1 | –
15 | 100 µM | CC1(N)CCN(c2ncc(C(=O)Nc3cccc4ccccc34)c(N)n2)CC1 | –
16 | > 100 µM | CN(Cc1ccccc1)c1ncc(C(=O)Nc2ccccc2)c(N)n1 | –
17 | 50 µM | Nc1nc(N2CCCC2)ncc1C(=O)Nc1ccccc1 | –
18 | > 100 µM | Nc1nc(N2CCN(c3ccccn3)CC2)ncc1C(=O)Nc1ccccc1 | –
19 | 0.62 µM | CC1(N)CCN(c2ncc(C(=O)Nc3ccc(F)cc3)c(N)n2)CC1 | –

Row | IC50 [1] | SMILES | further results
20 | 5.6 µM | CC(C)NC(=O)CN1CCN(c2ncc(C(=O)Nc3ccccc3)c(N)n2)CC1 | –
21 | 25 µM | CCCCN(C)c1ncc(C(=O)Nc2ccccc2)c(N)n1 | –
22 | > 100 µM | CC1(N)CCN(c2ncc(C(=O)Nc3cccc(-c4ccccc4)c3)c(N)n2)CC1 | –
23 | 11.5 µM | CCCN1CCN(c2ncc(C(=O)Nc3ccccc3)c(N)n2)CC1 | –
24 | 0.25 µM | CC1(N)CCN(c2ncc(C(=O)Nc3ccc(Cl)c(Cl)c3)c(N)n2)CC1 | –
25 | 1.9 µM | COc1ccc(NC(=O)c2cnc(N3CCC(C)(N)CC3)nc2N)cc1 | –
26 | 8.5 µM | CCOC(=O)N1CCN(c2ncc(C(=O)Nc3ccccc3)c(N)n2)CC1 | –
27 | > 100 µM | COc1ccc(N2CCN(c3ncc(C(=O)Nc4ccccc4)c(N)n3)CC2)cc1 | –
28 | 13.5 µM | COc1ccc2nc(C)cc(Nc3ccccc3OC)c2c1 | –
29 | 19 µM | COc1ccccc1CN1CCCC(c2[nH]ccc2C(N)=O)C1 (stereo unspecified) | –
30 | 6.7 µM | CC(=O)N1CCN(c2ncc(C(=O)Nc3ccccc3)c(N)n2)CC1 | –
31 | 2.1 µM | CCOC(=O)C1CCN(c2ncc(C(=O)Nc3ccccc3)c(N)n2)CC1 | –
32 | 10.2 µM | CCN1CCN(c2ncc(C(=O)Nc3ccccc3)c(N)n2)CC1 | –
33 | 3.4 µM | CC1(N)CCN(c2ncc(C(=O)Nc3cc(Cl)cc(Cl)c3)c(N)n2)CC1 | –
34 | 0.8 µM | CC1(N)CCN(c2ncc(C(=O)Nc3ccccn3)c(N)n2)CC1 | –
35 | 100 µM | CC1(N)CCN(c2ncc(C(=O)Nc3ccc4c(c3)Cc3ccccc3-4)c(N)n2)CC1 | –
36 | 12.8 µM | Nc1nc(N2CCC3(CC2)OCCO3)ncc1C(=O)Nc1ccccc1 | –
37 | 1.4 µM | CC1(N)CCN(c2ncc(C(=O)Nc3ccccc3)c(N)n2)CC1 | –
